One assay has as its target BRD4-BD2 (Homo sapiens (Human), UniProt O60885). In words: bromoKdELECT assay for binding affinity to BRD4-BD2. The conditions noted are these: 11-point 3-fold dilution.
A further assay concerns VCaP cells. Kind of assay: Cellular growth inhibition assay for VCaP cells, CellTiter-Glo. It counts as cell-based, human. As to conditions: VCaP cells, 72 hours, CellTiter-Glo, read-out: GI50. In short, it runs like this: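 GI50 values come from four-parameter curve fits of luminescence data normalized to a zero baseline. Compound, in medium with 0.5% DMSO, was added one day after plating and left for 72 h before CellTiter-Glo 2.0 addition.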
On the technique in general: In ATP-based viability assays light output follows the ATP content of the culture.

The subject of assay [1] is T-Rex 293 cell line SC3 cells lacking increased expression of androgen receptor protein. Kind of assay: Cellular growth inhibition, T-Rex 293 SC3 cells lacking increased androgen receptor expression (no doxycycline), CellTiter-Glo. It counts as cell-based. As to conditions: T-Rex 293 SC3 cells lacking increased androgen receptor expression (not exposed to doxycycline), 72 hours, CellTiter-Glo; read-out: GI50. In short, it runs like this: (§1)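 SC3, a T-Rex 293 clone with doxycycline-inducible wild-type androgen receptor, was seeded in phenol red-free DMEM with 10% charcoal-dextran FBS, with or without 10 ng/mL doxycycline. Compound added at 24 h (0.5% DMSO) for 72 h at 37° C. CellTiter-Glo 2.0 luminescence; GI50 from four-parameter fit.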

For assay [2], the system named is T-Rex 293 cell line SC3 cells having increased expression of androgen receptor protein. In words: Cellular growth inhibition, T-Rex 293 SC3 cells with increased androgen receptor expression (doxycycline), CellTiter-Glo. Format: cell-based. The conditions noted are these: T-Rex 293 SC3 cells with increased androgen receptor expression (exposed to 10 ng/mL doxycycline), 72 hours, CellTiter-Glo; read-out: GI50. In short, it runs like this:
as §1

The next assay concerns the target BRD4-BD1 (Homo sapiens (Human), UniProt O60885). In words: bromoKdELECT assay for binding affinity to BRD4-BD1. The conditions noted are these: 11-point 3-fold dilution.

Read-outs that look alike come from different tables or passages of the source. Some results are limits rather than exact numbers.

As a reminder, the Kd is the free concentration of one partner at which half of the binding sites on the other are occupied at equilibrium, for simple one-to-one binding. Read a low Kd as tighter binding. What is called GI50 is the concentration at which growth is held to half of that of the control. Consider `CCS(=O)(=O)c1ccc(Oc2cccc(CCCC3CCN(c4ccc(C(=O)N[C@H]5CC[C@H](Oc6ccc(C#N)c(Cl)c6)CC5)nn4)CC3)c2F)c(-c2cn(C)c(=O)c3[nH]ccc23)c1` [I-52], for which the Kd at BRD4-BD2 and on BRD4-BD1 was 50 to 500 nM each time. The GI50 (with VCaP cells; in assay [1]; in assay [2]) was below 500 nM throughout.
`CCS(=O)(=O)c1ccc(Oc2cc(F)c(CCC3CCN(c4ccc(C(=O)N[C@H]5CC[C@H](Oc6ccc(C#N)c(Cl)c6)CC5)nn4)CC3)cc2F)c(-c2cn(C)c(=O)c3[nH]ccc23)c1` [I-59]: the Kd at BRD4-BD2 and on BRD4-BD1 was 500 to 2500 nM in each case. Also, the GI50 (in the assay on VCaP cells; in assay [1]; in assay [2]) was below 500 nM in each case.
Turning to `CCS(=O)(=O)c1ccc(Oc2cccc(CCCOC3CC4(C3)CN(c3ccc(C(=O)N[C@H]5CC[C@H](Oc6ccc(C#N)c(Cl)c6)CC5)nn3)C4)c2F)c(-c2cn(C)c(=O)c3[nH]ccc23)c1` [I-46], the Kd at BRD4-BD2 and at BRD4-BD1 was 500 to 2500 nM throughout. The GI50 (in the assay with VCaP cells (Homo sapiens); in assay [1]; in assay [2]) was below 500 nM throughout.
On to `Cn1cc(-c2cc(C(C)(C)O)ccc2O[C@H]2C[C@H](N(C)CC3CCN(c4ccc(C(=O)N[C@H]5CC[C@H](Oc6ccc(C#N)c(Cl)c6)CC5)nn4)CC3)C2)c2cc[nH]c2c1=O` [I-158, N-((1r,4r)-4-(3-chloro-4-cyanophenoxy)cyclohexyl)-6-(4-((((1r,3r)-3-(4-(2-hydroxypropan-2-yl)-2-(6-methyl-7-oxo-6,7-dihydro-1H-pyrrolo[2,3-c]pyridin-4-yl)phenoxy)cyclobutyl)(methyl)amino)methyl)piperidin-1-yl)pyridazine-3-carboxamide], for which the Kd on BRD4-BD2 and at BRD4-BD1 was 50 to 500 nM each time. In addition, the GI50 (in the assay with VCaP cells (Homo sapiens); in assay [1]; in assay [2]) was below 500 nM in each case.
As to `Cn1cc(-c2cc(C(C)(C)O)ccc2Oc2c(F)cc(CCOC3CCN(c4ccc(C(=O)N[C@H]5CC[C@H](Oc6ccc(C#N)c(Cl)c6)CC5)nn4)CC3)cc2F)c2cc[nH]c2c1=O` [I-109], the Kd at BRD4-BD2 and on BRD4-BD1 was 500 to 2500 nM each time. Further, the GI50 (in the assay with VCaP cells (Homo sapiens); in assay [1]; in assay [2]) was below 500 nM in each case.
Regarding `CCS(=O)(=O)Nc1ccc(Oc2cccc(OCCOC3CCN(c4ccc(C(=O)N[C@H]5CC[C@H](Oc6ccc(C#N)c(Cl)c6)CC5)nn4)CC3)c2)c(-c2cn(C)c(=O)c3[nH]ccc23)c1` [I-1, N-[4-(3-chloro-4-cyano-phenoxy)cyclohexyl]-6-[4-[2-[3-[4-(ethylsulfonylamino)-2-(6-methyl-7-oxo-1H-pyrrolo[2,3-c]pyridin-4-yl)phenoxy]phenoxy]ethoxy]-1-piperidyl]pyridazine-3-carboxamide], the GI50 (in the assay with VCaP cells (Homo sapiens); in assay [1]; in assay [2]) was below 500 nM each time.
With `Cn1cc(-c2cc(C(C)(C)O)ccc2Oc2ccc(CCC3CCN(c4ccc(C(=O)N[C@H]5CC[C@H](Oc6ccc(C#N)c(Cl)c6)CC5)nn4)CC3)cc2)c2cc[nH]c2c1=O` [I-102], the Kd at BRD4-BD2 and on BRD4-BD1 was above 2500 nM in each case. Also, the GI50 in the assay with VCaP cells is below 500 nM; in assay [1] it was 500 to 1500 nM; in assay [2], below 500 nM.
For the compound `Cn1cc(-c2cc(C(C)(C)O)ccc2Oc2ccc(OC3CN(c4ccc(C(=O)N[C@H]5CC[C@H](Oc6ccc(C#N)c(Cl)c6)CC5)nn4)C3)cc2)c2cc[nH]c2c1=O` [I-95, N-[4-(3-chloro-4-cyano-phenoxy)cyclohexyl]-6-[3-[4-[4-(1-hydroxy-1-methyl-ethyl)-2-(6-methyl-7-oxo-1H-pyrrolo[2,3-c]pyridin-4-yl)phenoxy]phenoxy]azetidin-1-yl]pyridazine-3-carboxamide], the Kd at BRD4-BD2 and on BRD4-BD1 was 500 to 2500 nM throughout. Also, the GI50 (in the assay with VCaP cells (Homo sapiens); in assay [1]; in assay [2]) was below 500 nM throughout.
Consider `CCS(=O)(=O)c1ccc(Oc2cccc(CCC3CCN(c4ccc(C(=O)N[C@H]5CC[C@H](Oc6ccc(C#N)c(Cl)c6)CC5)nn4)CC3)c2F)c(-c2cn(C)c(=O)c3[nH]ccc23)c1` [I-51], for which the Kd on BRD4-BD2 and on BRD4-BD1 was 50 to 500 nM throughout. Moreover, the GI50 (with VCaP cells (Homo sapiens); in assay [1]; in assay [2]) was below 500 nM in each case.

For the origin of these results see patent US20250388575A1, “HETEROBIFUNCTIONAL COMPOUNDS AND METHODS OF TREATING DISEASE” (Halda Therapeutics OpCo, Inc., priority 2022, published 2025).
